PubChem BioAssay AID330 (DTP/NCI, 2004)
Where “and” joins values, the source holds several entries; their conditions need not be identical. Equal values may be shown once. Inconclusive results and toxic doses are left out. Rule for the calls: active = survival T/C of 150% or more; inactive = T/C below 125% in these data.

System: P388 leukemia ip, CD2F1 mice, survival T/C
Assay: NCI In Vivo Anticancer Drug Screen. Data for tumor model P388 Leukemia (intraperitoneal) in CD2F1 (CDF1) mice
Settings: endpoint: median survival time, higher = longer survival
Procedure, shortened: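 Mice carrying the transplanted tumor received test compound or vehicle. Survival was recorded in each group, and the value is the treated-group measurement divided by that of the vehicle-treated control group.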

[1] = dose: 50.0 mg/kg/injection, schedule: Q01DX005 (ip), vehicle: saline with Tween-80
[2] = dose: 100.0 mg/kg/injection, schedule: Q01DX005 (ip), vehicle: saline with Tween-80
[3] = dose: 200.0 mg/kg/injection, schedule: Q01DX005 (ip), vehicle: saline with Tween-80
[4] = dose: 60.0 mg/kg/injection, schedule: Q01DX005 (ip), vehicle: saline with Tween-80
[5] = dose: 120.0 mg/kg/injection, schedule: Q01DX005 (ip), vehicle: saline with Tween-80
[6] = dose: 240.0 mg/kg/injection, schedule: Q01DX005 (ip), vehicle: saline with Tween-80
[7] = dose: 50.0 mg/kg/injection, schedule: Q01DX009 (ip), vehicle: Klucel (hydroxypropylcellulose) (HPC)
[8] = dose: 100.0 mg/kg/injection, schedule: Q01DX009 (ip), vehicle: Klucel (hydroxypropylcellulose) (HPC)
[9] = dose: 200.0 mg/kg/injection, schedule: Q01DX009 (ip), vehicle: Klucel (hydroxypropylcellulose) (HPC)

Measured: T/C

CC(C)=CCC(O)C1=CC(=O)c2c(O)ccc(O)c2C1=O (configuration not stated)
inactive: dose: 0.5 mg/kg/injection, schedule: Q01DX009 (ip), vehicle: saline with Tween-80 102 % of control | dose: 1.0 mg/kg/injection, schedule: Q01DX009 (ip), vehicle: saline with Tween-80 110 % of control | dose: 1.25 mg/kg/injection, schedule: Q01DX009 (ip), vehicle: Klucel (hydroxypropylcellulose) (HPC) 107 % of control and 109 % of control and 110 % of control | dose: 2.0 mg/kg/injection, schedule: Q01DX009 (ip), vehicle: saline with Tween-80 110 % of control | dose: 2.5 mg/kg/injection, schedule: Q01DX009 (ip), vehicle: Klucel (hydroxypropylcellulose) (HPC) 107 % of control and 108 % of control and 112 % of control | dose: 2.5 mg/kg/injection, schedule: Q01DX009 (ip), vehicle: saline with Tween-80 102 % of control | dose: 5.0 mg/kg/injection, schedule: Q01DX009 (ip), vehicle: Klucel (hydroxypropylcellulose) (HPC) 117 % of control and 120 % of control | dose: 5.0 mg/kg/injection, schedule: Q01DX009 (ip), vehicle: saline with Tween-80 108 % of control | dose: 10.0 mg/kg/injection, schedule: Q01DX009 (ip), vehicle: Klucel (hydroxypropylcellulose) (HPC) 110 % of control and 120 % of control | dose: 15.0 mg/kg/injection, schedule: Q01DX009 (ip), vehicle: saline with Tween-80 100 % of control | dose: 15.0 mg/kg/injection, schedule: Q04DX003 (ip), vehicle: saline with Tween-80 100 % of control | dose: 30.0 mg/kg/injection, schedule: Q01DX009 (ip), vehicle: saline with Tween-80 90 % of control | dose: 30.0 mg/kg/injection, schedule: Q04DX003 (ip), vehicle: saline with Tween-80 109 % of control | [1] 97 % of control | [2] 91 % of control | [3] 99 % of control

O=C(Nc1ccc(O)c(C(=O)O)c1)Oc1ccc([N+](=O)[O-])cc1
inactive: [4] 102 % of control | [5] 107 % of control | [6] 94 % of control

Cc1ccnc(NS(=O)(=O)c2ccc(NCc3c4ccccc4nc4cc(Cl)ccc34)cc2)n1
inactive: [4] 99 % of control | [5] 90 % of control | [6] 86 % of control

CN(C)c1cc(N(C)C)c(N(C)C)cc1N(C)C
inactive: [1] 109 % of control | [2] 102 % of control | [3] 100 % of control

COc1ccc(N2C(=O)CC(c3cc(C)ccc3OC)CC2=O)cc1
inactive: dose: 100.0 mg/kg/injection, schedule: Q01DX001 (ip), vehicle: saline 98 % of control | dose: 200.0 mg/kg/injection, schedule: Q01DX001 (ip), vehicle: saline 98 % of control | dose: 400.0 mg/kg/injection, schedule: Q01DX001 (ip), vehicle: saline 91 % of control

COC(=O)/C(=C/c1ccc(/C=C(/C(=O)O)c2ccc(OC)cc2)o1)c1ccccc1
inactive: [4] 97 % of control | [5] 100 % of control | [6] 90 % of control

CC1=CC(=C2C(=O)c3ccccc3C2=O)C=CN1CCCN1CCCCC1
inactive: dose: 50.0 mg/kg/injection, schedule: Q01DX009 (ip), vehicle: saline 103 % of control and 119 % of control | dose: 100.0 mg/kg/injection, schedule: Q01DX009 (ip), vehicle: saline 101 % of control and 106 % of control | dose: 200.0 mg/kg/injection, schedule: Q01DX009 (ip), vehicle: saline 106 % of control and 123 % of control | dose: 400.0 mg/kg/injection, schedule: Q01DX009 (ip), vehicle: saline 100 % of control

CCOc1ccc(CO)cc1
inactive: dose: 100.0 mg/kg/injection, schedule: Q04DX003 (ip), vehicle: saline with Tween-80 120 % of control | dose: 200.0 mg/kg/injection, schedule: Q04DX003 (ip), vehicle: saline with Tween-80 120 % of control | dose: 400.0 mg/kg/injection, schedule: Q04DX003 (ip), vehicle: saline with Tween-80 120 % of control

C=C1CCCC2CCC[N+](C)(CC(=O)OCC)C12 (configuration not stated)
inactive: dose: 50.0 mg/kg/injection, schedule: Q01DX005 (ip), vehicle: saline 93 % of control

Nc1ncnc2c1ccn2C1OC2COP(=O)(O)OC2C1O (configuration not stated)
inactive: dose: 0.13 mg/kg/injection, schedule: Q03HX024 (ip), vehicle: saline 90 % of control | dose: 0.25 mg/kg/injection, schedule: Q03HX024 (ip), vehicle: saline 104 % of control | dose: 0.5 mg/kg/injection, schedule: Q03HX024 (ip), vehicle: saline 100 % of control | dose: 1.0 mg/kg/injection, schedule: Q01DX009 (ip), vehicle: saline 100 % of control | dose: 1.0 mg/kg/injection, schedule: Q03HX024 (ip), vehicle: saline 122 % of control | dose: 1.0 mg/kg/injection, schedule: Q04DX003 (ip), vehicle: saline 104 % of control | dose: 2.0 mg/kg/injection, schedule: Q01DX001 (ip), vehicle: saline 100 % of control | dose: 2.0 mg/kg/injection, schedule: Q01DX009 (ip), vehicle: saline 104 % of control | dose: 2.0 mg/kg/injection, schedule: Q04DX003 (ip), vehicle: saline 100 % of control | dose: 4.0 mg/kg/injection, schedule: Q01DX001 (ip), vehicle: saline 100 % of control | dose: 4.0 mg/kg/injection, schedule: Q04DX003 (ip), vehicle: saline 104 % of control | dose: 8.0 mg/kg/injection, schedule: Q01DX001 (ip), vehicle: saline 109 % of control | dose: 8.0 mg/kg/injection, schedule: Q01DX009 (ip), vehicle: saline 95 % of control | dose: 8.0 mg/kg/injection, schedule: Q04DX003 (ip), vehicle: saline 113 % of control | dose: 16.0 mg/kg/injection, schedule: Q01DX001 (ip), vehicle: saline 118 % of control

C=CCNC(=S)N=Nc1c(O)[nH]c2ccccc12
inactive: dose: 50.0 mg/kg/injection, schedule: Q01DX009 (ip), vehicle: saline with Tween-80 94 % of control | dose: 100.0 mg/kg/injection, schedule: Q01DX009 (ip), vehicle: saline with Tween-80 91 % of control | dose: 200.0 mg/kg/injection, schedule: Q01DX009 (ip), vehicle: saline with Tween-80 88 % of control

Cc1c(C(=O)O)nc(-c2ccc3c(n2)C(=O)C(N)=CC3=O)c2[nH]c3ccccc3c12
inactive: dose: 0.1 mg/kg/injection, schedule: Q01DX009 (ip), vehicle: distilled water + Tween-80 + alcohol 110 % of control | dose: 0.2 mg/kg/injection, schedule: Q01DX009 (ip), vehicle: distilled water + Tween-80 + alcohol 116 % of control | dose: 0.4 mg/kg/injection, schedule: Q01DX009 (ip), vehicle: distilled water + Tween-80 + alcohol 112 % of control | dose: 0.8 mg/kg/injection, schedule: Q01DX009 (ip), vehicle: distilled water + Tween-80 + alcohol 113 % of control

CCOC(=O)C(=CNc1cccc(N(C)C)c1)C(=O)OCC
inactive: [1] 100 % of control | [2] 92 % of control | [3] 100 % of control

CN(C)/C=N/NC(=O)c1ccccc1N
inactive: [4] 101 % of control | [5] 101 % of control | [6] 100 % of control

Clc1cccc2sc(Nc3c4ccccc4nc4ccccc34)nc12
inactive: dose: 12.5 mg/kg/injection, schedule: Q04DX002 (ip), vehicle: distilled water + Tween-80 95 % of control | dose: 25.0 mg/kg/injection, schedule: Q04DX002 (ip), vehicle: distilled water + Tween-80 89 % of control | dose: 50.0 mg/kg/injection, schedule: Q04DX002 (ip), vehicle: distilled water + Tween-80 95 % of control | dose: 100.0 mg/kg/injection, schedule: Q04DX002 (ip), vehicle: distilled water + Tween-80 97 % of control | dose: 200.0 mg/kg/injection, schedule: Q04DX002 (ip), vehicle: distilled water + Tween-80 97 % of control | dose: 400.0 mg/kg/injection, schedule: Q04DX002 (ip), vehicle: distilled water + Tween-80 97 % of control

N#Cc1nc2c(nc1N)CCCCCCCCCC2
inactive: dose: 25.0 mg/kg/injection, schedule: Q01DX009 (ip), vehicle: Klucel (hydroxypropylcellulose) (HPC) 94 % of control | [7] 94 % of control | [8] 92 % of control | [9] 100 % of control

CC(N)C(=O)Nc1ccc(C(=O)O)c(O)c1 (configuration not stated)
inactive: [4] 100 % of control | [5] 102 % of control | [6] 93 % of control

Cc1cc(N/N=C(\c2ccccc2)c2ccccn2)nc2ccccc12
inactive: [1] 104 % of control | [2] 103 % of control | [3] 94 % of control

O=C1CC(=O)C(C(=O)c2ccccc2)N1 (configuration not stated)
inactive: [1] 96 % of control | [2] 97 % of control | [3] 94 % of control

O=c1sc(N=Nc2ccccc2)nn1-c1ccccc1
inactive: dose: 50.0 mg/kg/injection, schedule: Q04DX003 (ip), vehicle: other 90 % of control | dose: 100.0 mg/kg/injection, schedule: Q04DX003 (ip), vehicle: other 95 % of control | dose: 200.0 mg/kg/injection, schedule: Q04DX003 (ip), vehicle: other 95 % of control

COC1C(/C=[N+](\[O-])C2C(C3COC(C)(C)O3)OC3OC(C)(C)OC32)OC2OC(C)(C)OC21 (configuration not stated)
inactive: [7] 100 % of control | [8] 103 % of control | [9] 105 % of control
